From patent US20230295163A1, “TETRACYCLIC DERIVATIVE, METHOD FOR PREPARING SAME AND USE THEREOF IN MEDICINE” (ZHEJIANG HISUN PHARMACEUTICAL CO., LTD., priority 2020, published 2023)

Experiments:
[1] = target: T1, hERG potassium ion channel (Homo sapiens, UniProt Q12809); assay: Inhibition of hERG potassium ion channel (QPatch, CHO hERG cells); format: cell-based
T1 construct: host or cells: CHO
Procedure: 1.1 The cells used in this experiment were CHO cell line (provided by Sophion Bioscience, Denmark) transfected with hERG cDNA and stably expressing hERG channels, with a cell generation of 17. The cells were cultured in a medium containing the following components (all obtained from Invitrogen): Ham's F12 medium, 10% (v/v) inactivated fetal bovine serum, 100 μg/mL hygromycin B, and 100 μg/mL geneticin.
1.2 CHO hERG cells were cultured in a petri dish containing the above culture medium in an incubator containing 5% CO2 at 37° C. 24 to 48 h before the electrophysiological experiment, CHO hERG cells were transferred to a round glass slide placed in a petri dish, and cultured in the same medium and conditions as above. The density of CHO hERG cells on each round glass slide met the requirement that the majority of cells were independent and individual.
A fully automated QPatch system (Sophion, Denmark) was used for whole-cell current recordings. Cells were clamped at a voltage of −80 mV. […]
After reaching a membrane-permeable whole-cell configuration state during the initial phase, the cells were recorded for at least 120 s to reach stabilization. […]
The test data were analyzed by analysis software Qpatch provided by Sophion, Excel, Graphpad Prism, and the like.

[2] = test system: NCI-H358 cell xenograft tumor; assay: Pharmacodynamics in NCI-H358 cell BALB/c nude mouse subcutaneous xenograft model; format: in vivo, BALB/c nude mice; conditions: 10 mg/kg po qd
Procedure: This test is used to evaluate the anti-tumor effect and safety of the compound 17 of the present disclosure in the animal model of BALB/c nude mouse subcutaneously transplanted with NCI-H358 (human non-small cell lung cancer) cell line after oral intragastric administration for 14 days, once a day.
An appropriate amount of compound 17 was weighed into a 10 mL centrifuge tube, added with an appropriate amount of DMA, shaken by vortex for complete dissolution of the solid matter, then added with an appropriate volume of 30% solutol HS 15, shaken by vortex, mixed well, and added with normal saline to make the ratio of DMA:30% solutol HS 15:saline 10:10:80 (v/v/v), for a preparation at a concentration of 1 mg/mL for administration.
About 3.7×10^6 NCI-H358 cells were subcutaneously inoculated on the right side of the back of female BALB/c nude mice. When the average volume of the tumor reached about 100-150 mm^3, the mice were randomly divided into 2 groups according to the size of the tumor, 6 mice in each group.
After tumor inoculation, a subcutaneous xenograft tumor model was established. Each treatment group and the vehicle control group were orally intragastrically administered for 14 days. The animals were weighed daily, and the tumor volume was measured twice a week.
Formulas for calculating the tumor volume (TV), relative tumor proliferation rate (T/C), relative tumor growth inhibition rate (TGI) and tumor inhibition rate (IR) are as follows: • (1) TV (tumor volume)=½×a×b^2, where a and b represent the length and width of the tumor, respectively; • (2) T/C (relative tumor proliferation rate, %)=TRTV/CRTV×100%, where TRTV is the RTV of the treatment group, and CRTV is the RTV of the control group; • (3) TGI % (tumor growth inhibition rate)=(1−T/C)×100%; where T and C are the relative tumor volumes at a specific time point in the treatment group and the control group, respectively. • (4) IR (%) (tumor weight inhibition rate)=(1−TWt/TWc)×100%, where TWt is the tumor weight in the treatment group, and TW is the tumor weight in the control group.

T1 sequence (Q12809 whole entry): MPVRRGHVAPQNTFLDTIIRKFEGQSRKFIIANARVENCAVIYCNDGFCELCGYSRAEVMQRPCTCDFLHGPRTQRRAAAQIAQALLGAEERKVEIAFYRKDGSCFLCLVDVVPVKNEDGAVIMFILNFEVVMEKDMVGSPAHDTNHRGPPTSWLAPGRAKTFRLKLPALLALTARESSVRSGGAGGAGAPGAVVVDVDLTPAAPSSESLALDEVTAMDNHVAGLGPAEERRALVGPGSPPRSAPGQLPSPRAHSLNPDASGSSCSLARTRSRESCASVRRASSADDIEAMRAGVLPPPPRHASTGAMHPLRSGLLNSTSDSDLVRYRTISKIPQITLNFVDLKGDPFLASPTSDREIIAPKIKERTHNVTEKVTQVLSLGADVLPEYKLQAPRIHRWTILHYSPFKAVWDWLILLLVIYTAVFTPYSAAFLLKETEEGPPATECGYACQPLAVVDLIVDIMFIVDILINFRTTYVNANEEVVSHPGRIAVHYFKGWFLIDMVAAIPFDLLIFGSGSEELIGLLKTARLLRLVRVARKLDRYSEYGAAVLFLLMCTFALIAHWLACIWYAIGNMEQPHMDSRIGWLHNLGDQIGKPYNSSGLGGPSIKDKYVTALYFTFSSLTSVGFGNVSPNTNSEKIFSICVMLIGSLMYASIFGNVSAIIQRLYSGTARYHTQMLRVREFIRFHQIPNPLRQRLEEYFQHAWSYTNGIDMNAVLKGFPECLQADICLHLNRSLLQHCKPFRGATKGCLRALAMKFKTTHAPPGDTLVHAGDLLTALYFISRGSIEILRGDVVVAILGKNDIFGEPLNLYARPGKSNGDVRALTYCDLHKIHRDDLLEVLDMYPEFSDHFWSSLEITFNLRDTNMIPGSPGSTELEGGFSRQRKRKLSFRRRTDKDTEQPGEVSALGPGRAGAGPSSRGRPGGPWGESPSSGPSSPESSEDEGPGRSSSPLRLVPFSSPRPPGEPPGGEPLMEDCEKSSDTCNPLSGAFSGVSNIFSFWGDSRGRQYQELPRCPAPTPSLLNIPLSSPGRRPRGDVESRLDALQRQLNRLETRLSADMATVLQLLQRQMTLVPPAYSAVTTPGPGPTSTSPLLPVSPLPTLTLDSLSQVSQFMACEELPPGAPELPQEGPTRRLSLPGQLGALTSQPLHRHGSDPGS

C=CC(=O)N1C[C@@H]2C(=O)N(C)c3c(c4cc(Cl)c(-c5c(O)cccc5F)nc4n(-c4c(SC)ccnc4C(C)C)c3=O)N2C[C@H]1C (single isomer, unassigned) [Compound 17]
Inhibitory effect on heart hERG potassium ion channel (in words) [1]: no obvious inhibitory effect
IC50 ([1]; highest test concentration 30 μM): > 30 µM
IR (tumor weight inhibition rate) ([2]; 14 days): 90.8%
Tumor weight (x ± S) ([2]; 14 days): 0.0157 ± 0.0033 g
T/C (%) ([2]; Day 15 after administration): 15.6%
TGI (%) ([2]; Day 15 after administration): 84.4%
Tumor volume (x ± S) ([2]; Day 15 after administration, mean ± standard error): 52 ± 15 mm^3
Body weight change ([2]; within 14 days): without significant body weight change
Growth inhibitory effect on the tumor model (in words) ([2]; within 14 days): obvious growth inhibitory effect
